Measured values as given in US12708673B2, “Methods and compositions related to peptides and proteins with c-terminal elements” (Sanford Burnham Prebys Medical Discovery Institute, priority 2008, dated 2026).
Entries after “also recorded” stand apart in the source; their conditions may differ. Ends that are not written are not given here.

Legend:
Assay type in all cases: cell-based, human
PPC-1 cells [1] = test: T7 phage binding to PPC-1 (PPC1) cells at 4° C., quantified by titration/plaque assay; conditions: for Effect of glycosaminoglycan digestion or competition on RPARPAR phage binding: data not shown
Protocol: (§1) FIG. 2A: Binding of T7 phage to prostate cancer cells depends on the display of a C-terminal arginine on the phage particles. PPC1 cells were incubated with T7 bacteriophage displaying derivatives of the G7 (upper graph) or RPARPAR peptide (SEQ ID NO: 2) (lower graph) at 4° C., and the bound phage was quantified by plaque assay. Binding is expressed in fold over of the non-binding G7 control phage. FIG. 2B: Phage displaying C-terminal arginine is internalized into cultured PPC1 cells (arrow, nuclear internalization; arrowhead, cytoplasmic internalization). A panel of T7 phage clones were incubated at 37° C. with PPC1 cells grown on collagen-coated coverslips, stained with anti T7 antibody and imaged by confocal microscopy.
(§2) Phage display. For in vivo phage display, mice were injected intravenously with 10^10 plaque-forming units (pfu) of T7 phage followed by perfusion of the circulatory system and determination of the bound phage in target organs by titration. For cell binding studies on cultured cells (in vitro display) and organ-derived cell suspensions (ex vivo display), the cells were incubated with 10^9 pfu of phage at 4° C., washed, lysed, and quantified by titration. Incubation at 37° C. followed by low pH wash (glycine-HCl, pH 2.5) was used to assess the amount of internalized phage.
(§3) For biopanning and phage binding studies (Hoffman, J. A. et al., 2004), cultured cells were grown to confluence and harvested with trypsin and mouse organs were dissociated using Medimachine (BD Biosciences, San Jose, CA). To measure phage binding, 10^6 cells in binding buffer (DMEM containing 1% BSA) were incubated with 10^9 pfu/ml of T7 phage for 1 hour at 4° C. The cells were washed 4 times with the binding buffer, lysed in LB bacterial growth medium containing 1% NP-40, and titrated. Phage internalization assays used the same procedure, except that the cells were incubated with the phage at 37° C., and that an acidic buffer (500 mM sodium chloride, 0.1 M glycine, 1% BSA, pH 2.5) was used instead of binding buffer in the second wash.
(§4) Centrifugation on a silicone oil cushion (1.03 g/ml) was used to separate unbound phage from cells during time course experiments. Inhibitors of phage binding and internalization (heparin, chondroitin, glycocalyx removal enzymes, endocytosis inhibitors, free peptides, quantum dots and UV-inactivated phage) were added to the cells 20 minutes prior to incubation with phage. Endocytosis inhibitors used in this study were the following: nystatin (50 μg/ml), genistein (100 μg/ml), chlorpromazine (5 μg/ml), 5-(N-ethyl-N-isopropyl) amiloride (100 μM), wortmannin (10 μM).

PPC-1 cells [2] = test: Binding and internalization of peptide-coated quantum dots by PPC-1 cells (confocal/fluorescence microscopy)
PPC-1 cells [3] = test: T7 phage internalization into PPC-1 (PPC1) cells at 37° C. (acid wash and titration, or anti-T7 staining and confocal imaging); conditions: for Effect of endocytosis inhibitor on uptake of CendR peptides (RPARPAR phage internalization): 90 minutes at 37° C., acid wash and titration; for Internalization into PPC1 cells compared to native iRGD phage: truncated versions of iRGD phage; for Phage internalization into PPC-1 cells (in words): 37° C.
Protocol: as §1, §2, §3, §4
Immunofluorescence staining. Cultured cells (2×10^5 cells) were grown in 6-well tissue culture plates on collagen-I coated coverslips (BD Biosciences, San Jose, CA) overnight at 37° C. in 5% CO2, and incubated with 10^8 pfu of T7 phage. The cells were fixed in 4% paraformaldehyde or cold (−20° C.) methanol, and stained with antibodies. Nuclei were stained with DAPI or […]. A polyclonal rabbit anti-T7 antibody was generated in-house as described previously (Laakkonen, P. et al. 2002b), except that an additional phage purification step using […] centrifugation was included. Other primary antibodies used were rat anti-mouse CD31 monoclonal antibody (BD Biosciences), rabbit anti-NRP-1, mouse anti-human Lamp-1, mouse anti-human caveolin (Millipore, Temecula, CA), mouse anti-NRP-1 (Miltenyi Biotec Inc., Auburn, CA), mouse anti-human EEA-1 (BD Biosciences, San Jose, CA). The secondary antibodies, Alexa594 goat antibodies to mouse, rat, and rabbit immunoglobulins and Alexa488 donkey anti-rabbit antibody were from Invitrogen (Carlsbad, CA). Cells and tissue sections were examined by confocal microscopy (Fluoview 500, Olympus America Inc., Center Valley, PA).

PPC-1 cells [4] = test: Confocal immunofluorescence co-staining of phage/qdots with cellular markers in PPC-1 cells; conditions: immunofluorescent co-staining
PPC-1 cells [5] = test: Protease treatment of phage followed by phage binding assay on PPC-1 cells at 4° C.
Protocol: 5×10^8 phage particles were incubated with indicated volumes of 2.5% trypsin at 37° C. for 20 min, followed by incubation of the phage with 1×10^6 PPC1 cells at 4° C. for 3 hours. Binding is expressed as fold over non-binding G7 control phage (the internalization of which was not affected by the trypsin treatment).
10^9 pfu of RPARPARA (SEQ ID NO:3) phage was treated with indicated amounts of trypsin at 37° C. followed by phage binding assay at 4° C. The data are representative of 4 independent binding experiments.
FIGS. 20A-20C show urokinase dependent CendR peptide. FIG. 20A: The design of a uPA-activatable CendR peptide (uCendR). […] Statistical analysis was performed with ANOVA (b); n=3; error bars indicate s.d.; triple asterisk, p<0.001. Scale bars: 20 μm.
as §3
Protease treatment of phage and qdots. 10^9 phage particles or 50 μl of peptide-coated qdots phage were treated with 50 iu of uPA, 25 μg of crystalline trypsin, 50 iu of thrombin, or 25 μg of collagenase type I (all Sigma, St. Louis, Mo).

For “TKPPR [enhanced tuftsin phage, reference compound]”, the “Phage binding to PPC-1 cells (in words)” value (PPC-1 cells [1]; 4° C.) was “bound”.

In the case of GGGGGGR [G6R phage], the “Phage binding to PPC-1 cells (in words)” value (PPC-1 cells [1]; 4° C.) is reported as “weak phage binding”.

With `N=C(N)NC(=O)c1nc(Cl)c(N)nc1N` [Amiloride, reference compound] the “Effect on uptake of uPA-CendR qdots” value (PPC-1 cells [2]) was “inhibited uptake”.

For `CN(C)CCCN1c2ccccc2Sc2ccc(Cl)cc21` [chloropromazine, reference compound], the “Effect of endocytosis inhibitor on uptake of CendR peptides (RPARPAR phage internalization)” value (“Effect of endocytosis inhibitor” for short) (PPC-1 cells [3]) was “None of these inhibitors affected the uptake”.

“RPARPAR (also: biotinylated, site not given here, on streptavidin quantum dot) [RPARPAR qdots, streptavidin quantum dots coated with biotinylated RPARPAR peptide with free C-terminus]” was tested, and the “Co-localization with NRP-1” value (PPC-1 cells [4]) was “co-localize with NRP-1 at the cell surface and inside the cells”, the “Binding and internalization of peptide-coated qdots (in words)” value (shortened to “Binding and internalization … (in words)”) (PPC-1 cells [2]) was “robust binding and internalization; also recorded: bound and were internalized in a manner indistinguishable from the phage particles” and the “Time to perinuclear accumulation” value (PPC-1 cells [2]; qdots, 37° C., live cells) was 1 h. The “Time to plasma membrane association” value (PPC-1 cells [2]; qdots, 37° C., live cells) was 15 min, the “Effect of excess qdots on G6R phage binding” value (PPC-1 cells [1]; 4° C.) was “blocked” and the “Effect of preincubating cells with qdots on binding of RPARPAR, RGERPPR and RVTRPPR phage” value (PPC-1 cells [1]; 4° C.) was “inhibited”. For the same molecule, the “Effect of qdots on binding and internalization of RPARPAR phage” value (PPC-1 cells [1]; bound at 4° C., internalized at 37° C. with low pH wash) was “inhibited both the binding and internalization of RPARPAR phage”.

With `C[C@@H]1[C@H](O)[C@@H](C)/C=C/C=C/CC/C=C/C=C/C=C/C=C/C(O[C@H]2O[C@H](C)[C@@H](O)[C@H](N)[C@@H]2O)CC2O[C@](O)(CC(O)C(O)CCC(O)CC(O)CC(O)CC(=O)O[C@H]1C)CC(O)C2C(=O)O` (some centres unmarked) [nystatin, reference compound] the “Effect of endocytosis inhibitor” value (PPC-1 cells [3]) was “None of these inhibitors affected the uptake”.

CRGDKG [CRGDKG phage] was tested, and the “Internalization into PPC1 cells compared to native iRGD phage” value (PPC-1 cells [3]) was “higher ability to internalize”.

In the case of “RPARSGRSAGGSVA (also: biotinylated, site not given here, on streptavidin quantum dot) [uCendR qdots]”, the “Internalization of untreated qdots” value (PPC-1 cells [2]; no uPA treatment) is reported as “are not internalized”, the “Internalization of qdots after uPA treatment” value (PPC-1 cells [2]) is reported as “triggers internalization” and the “Internalization of qdots after uPA treatment” value (PPC-1 cells [2]; listed as RPARSGRSAGGSVA qdots) is reported as “internalized in uPA sensitive fashion”.

In the case of “chondroitin sulfate [reference compound]”, the “Effect of glycosaminoglycan digestion or competition on RPARPAR phage binding” value (shortened to “Effect … on RPARPAR phage binding”) (PPC-1 cells [1]) is reported as “had no effect”.

RPARPAR-NH2 [RPARPAR-NH2 qdots] was tested, and the “Binding and internalization … (in words)” value (PPC-1 cells [2]) was “abolished the binding and internalization; also recorded: blocked qdot internalization”.

With RPARSGRSAGGSVA [uPA-CendR phage] the “Effect of phage treatment with collagenase-I on binding” value (PPC-1 cells [5]; 25 μg of collagenase type I) was “had no effect”, the “Effect of phage treatment with thrombin on binding” value (PPC-1 cells [5]; 50 iu of thrombin) was “had no effect” and the “Elevation of binding by pretreatment with uPA” value (PPC-1 cells [5]; 50 iu of uPA prior to cell binding) was “more than 100 fold”. The “Binding of untreated phage to PPC-1 cells over control G7 phage” value (PPC-1 cells [5]; no protease treatment) was “did not bind” and the “Effect of trypsin treatment of phage on binding (in words)” value (PPC-1 cells [5]; trypsin) was “greatly enhanced the binding”.

In the case of D-rparpar [D-rparpar qdots], the “Binding and internalization … (in words)” value (PPC-1 cells [2]) is reported as “greatly reduced ability to trigger uptake of quantum dots”.

“CG7C [CG7C control phage, reference compound]” was tested, and the “Phage internalization into PPC-1 cells (in words)” value (PPC-1 cells [3]) was “does not”.

For RVTRPPR [RVTRPPR phage], the “Phage binding to PPC-1 cells (in words)” value (PPC-1 cells [1]; 4° C.) was “robust binding and internalization” and the “Phage internalization into PPC-1 cells (in words)” value (PPC-1 cells [3]) was “robust binding and internalization”.

In the case of CRGDK [CRGDK phage], the “Internalization into PPC1 cells compared to native iRGD phage” value (PPC-1 cells [3]) is reported as “higher ability to internalize”.

`O=c1c(-c2ccc(O)cc2)coc2cc(O)cc(O)c12` [genistein, reference compound] was tested, and the “Effect of endocytosis inhibitor” value (PPC-1 cells [3]) was “None of these inhibitors affected the uptake”.

With chondroitinase ABC [reference compound] the “Effect … on RPARPAR phage binding” value (PPC-1 cells [1]) was “had no effect”.

In the case of RPAR [RPAR phage], the “Effect of UV-inactivated phage on CRGDK phage internalization” value (PPC-1 cells [3]; pre-incubation, various concentrations) is reported as “inhibited by RPAR phage in a dose-dependent fashion”.

In the case of `CCN(c1nc(N)c(C(=O)N=C(N)N)nc1Cl)C(C)C` [5-(N-ethyl-N-isopropyl) amiloride, reference compound], the “Effect of endocytosis inhibitor” value (PPC-1 cells [3]) is reported as “None of these inhibitors affected the uptake”.

“RPARPARA (also: biotinylated, site not given here, on streptavidin quantum dot) [RPARPARA qdots]” was tested, and the “Binding and internalization … (in words)” value (PPC-1 cells [2]) was “prevented”.

For RGERPPR [RGERPPR phage], the “Phage binding to PPC-1 cells (in words)” value (PPC-1 cells [1]; 4° C.) was “robust binding and internalization” and the “Phage internalization into PPC-1 cells (in words)” value (PPC-1 cells [3]) was “robust binding and internalization”.

For ATWLPPR [A7R phage, reference compound], the “Phage binding to PPC-1 cells (in words)” value (PPC-1 cells [1]; 4° C.) was “bound”.

With heparin [reference compound] the “Effect … on RPARPAR phage binding” value (PPC-1 cells [1]) was “had no effect”.

B1: heparinase III: enzyme used for digestion of cell surface glycosaminoglycans (protein, UniProt Q59289 25-659, looked up)
Heparin-sulfate lyase: QSSSITRKDFDHINLEYSGLEKVNKAVAAGNYDDAAKALLAYYREKSKAREPDFSNAEKPADIRQPIDKVTREMADKALVHQFQPHKGYGYFDYGKDINWQMWPVKDNEVRWQLHRVKWWQAMALVYHATGDEKYAREWVYQYSDWARKNPLGLSQDNDKFVWRPLEVSDRVQSLPPTFSLFVNSPAFTPAFLMEFLNSYHQQADYLSTHYAEQGNHRLFEAQRNLFAGVSFPEFKDSPRWRQTGISVLNTEIKKQVYADGMQFELSPIYHVAAIDIFLKAYGSAKRVNLEKEFPQSYVQTVENMIMALISISLPDYNTPMFGDSWITDKNFRMAQFASWARVFPANQAIKYFATDGKQGKAPNFLSKALSNAGFYTFRSGWDKNATVMVLKASPPGEFHAQPDNGTFELFIKGRNFTPDAGVFVYSGDEAIMKLRNWYRQTRIHSTLTLDNQNMVITKARQNKWETGNNLDVLTYTNPSYPNLDHQRSVLFINKKYFLVIDRAIGEATGNLGVHWQLKEDSNPVFDKTKNRVYTTYRDGNNLMIQSLNADRTSLNEEEGKVSYVYNKELKRPAFVFEKPKKNAGTQNFVSIVYPYDGQKAPEISIRENKGNDFEKGKLNLTLTINGKQQLVLVP
B1 was tested, and the “Effect … on RPARPAR phage binding” value (PPC-1 cells [1]) was “had no effect”.
